The NIST ThermoML archive (doi:10.1021/acs.jced.7b01049)

Test: xn = mol fraction of the nth substance listed
Details: for surface tension liquid-gas / mass density: discharge crucible method; for mass density / viscosity: 100 kPa, Liquid; for viscosity: discharge crucible

[Pb] [lead] + [Sb]
Details	mass density [kg/m3]	surface tension liquid-gas [mN/m]	viscosity [mPa·s]
573 K, x2 = 0.1675	10206	437.1	2.565
623 K, x2 = 0.1675	10142	433.7	2.262
673 K, x2 = 0.1675	10087	429.9	1.999
673 K, x2 = 0.4	9263	418.3	1.873
723 K, x2 = 0.1675	10019	426.6	1.836
723 K, x2 = 0.4	9201	414.6	1.721
773 K, x2 = 0.1675	9963	422.8	1.694
773 K, x2 = 0.4	9143	411.5	1.573
773 K, x2 = 0.6	8244	400.5	1.561
823 K, x2 = 0.1675	9905	419.1	1.583
823 K, x2 = 0.4	9095	407.8	1.475
823 K, x2 = 0.6	8185	397.1	1.449
873 K, x2 = 0.1675	9862	415.6	1.495
873 K, x2 = 0.4	9042	403.9	1.358
873 K, x2 = 0.6	8138	393.9	1.333
873 K, x2 = 0.9	6977	376.2	1.539
923 K, x2 = 0.1675	9814	411.9	1.425
923 K, x2 = 0.4	8991	400.2	1.266
923 K, x2 = 0.6	8098	390.7	1.211
923 K, x2 = 0.9	6938	372.6	1.357
973 K, x2 = 0.9	6892	368.6	1.212
1023 K, x2 = 0.9	6856	364.4	1.118
